In US12030896B2, “PIKfyve inhibitors” (Mayo Foundation for Medical Education and Research, priority 2018, dated 2024) one finds EC50 data, which are given here for 35 molecules.

Structures are written as SMILES.

The subject of this experiment is U251. In words: U251 Vacuolization Assay (24h). Format: cell-based. As to conditions: Homo sapiens, U-251. How it is done:
As used herein the term “EC50 (μM)” refers to the μM concentration of a compound that is required for 50% activity in a vacuolization assay.
Example A—U251 Vacuolization Assay Data (24h) for Compounds of Examples 8-56
In general, EC50 refers to the concentration giving half of the maximal effect. A low value points to greater potency. Take `Cc1ccc(Nc2nc(NCc3c[nH]c4ccccc34)nc(N3CCOCC3)n2)cc1` [Example 8, N-(1H-Indol-3-ylmethyl)-6-morpholin-4-yl-N′-p-tolyl-[1,3,5]triazine-2,4-diamine]: the EC50 was in the range of 1 to 10 µM.
Take `Cc1cccc(Nc2nc(N/N=C/c3c[nH]c4ccccc34)nc(N3CCOCC3)n2)c1` [Example 9, {4-[N′-(1H-Indol-3-ylmethylene)-hydrazino]-6-morpholin-4-yl-[1,3,5]triazin-2-yl}-m-tolyl-amine]: the EC50 was at most 1 µM.
Take `Fc1ccc(Nc2nc(N/N=C/c3c[nH]c4ccccc34)nc(N3CCOCC3)n2)cc1` [Example 10, (4-Fluoro-phenyl)-{4-[N′-(1H-indol-3-ylmethylene)-hydrazino]-6-morpholin-4-yl-[1,3,5]triazin-2-yl}-amine]: the EC50 is at most 1 µM.
The molecule `Clc1ccc(Nc2nc(N/N=C/c3c[nH]c4ccccc34)nc(N3CCOCC3)n2)cc1` [Example 11, (E)-4-(2-((1h-indol-3-yl)methylene)hydrazinyl)-n-(4-chlorophenyl)-6-morpholino-1,3,5-triazin-2-amine] registered an EC50 of at most 1 µM.
`COc1ccc(Nc2nc(N/N=C/c3c[nH]c4ccccc34)nc(N3CCOCC3)n2)cc1` [Example 12, {4-[N′-(1H-Indol-3-ylmethylene)-hydrazino]-6-morpholin-4-yl-[1,3,5]triazin-2-yl}-(4-methoxy-phenyl)-amine] registered an EC50 of at most 1 µM.
For `Cc1ccc(Nc2nc(NCCO)nc(N/N=C/c3c[nH]c4ccccc34)n2)cc1` [Example 13, 2-{4-[N′-(1H-Indol-3-ylmethylene)-hydrazino]-6-p-tolylamino-[1,3,5]triazin-2-ylamino}-ethanol], the EC50 was over 50 µM.
`Cc1ccc(Nc2nc(N/N=C/c3c[nH]c4ccccc34)nc(N(CCO)CCO)n2)cc1` [Example 14, 2-((2-Hydroxy-ethyl)-{4-[N′-(1H-indol-3-ylmethylene)-hydrazino]-6-p-tolylamino-[1,3,5]triazin-2-yl}-amino)-ethanol] gave an EC50 of over 50 µM.
In the case of `Cc1ccc(Nc2nc(N/N=C/c3c[nH]c4ccccc34)nc(N3CCCCC3)n2)cc1` [Example 15, {4-[N′-(1H-Indol-3-ylmethylene)-hydrazino]-6-piperidin-1-yl-[1,3,5]triazin-2-yl}-p-tolyl-amine], the EC50 is over 50 µM.
`Cc1ccc(Nc2nc(N/N=C/c3c[nH]c4ccccc34)nc(N3CCCC3)n2)cc1` [Example 16, {4-[N′-(1H-Indol-3-ylmethylene)-hydrazino]-6-pyrrolidin-1-yl-[1,3,5]triazin-2-yl}-p-tolyl-amine] had an EC50 of over 50 µM.
`Cc1ccc(Nc2nc(N/N=C/c3c[nH]c4ccccc34)nc(N3CCN(C)CC3)n2)cc1` [Example 17, [4-[N′-(1H-Indol-3-ylmethylene)-hydrazino]-6-(4-methyl-piperazin-1-yl)-[1,3,5]triazin-2-yl]-p-tolyl-amine] returned an EC50 of over 50 µM.
`Cc1ccc(Nc2nc(N/N=C/c3c[nH]c4ccccc34)nc(N3CCNCC3)n2)cc1` [Example 18, {4-[N′-(1H-Indol-3-ylmethylene)-hydrazino]-6-piperazin-1-yl-[1,3,5]triazin-2-yl}-p-tolyl-amine]: the EC50 is over 50 µM.
`Cc1ccccc1Nc1nc(N/N=C/c2c[nH]c3ccccc23)nc(N2CCOCC2)n1` [Example 19, {4-[N′-(1H-Indol-3-ylmethylene)-hydrazino]-6-morpholin-4-yl-[1,3,5]triazin-2-yl}-o-tolyl-amine] returned an EC50 of at most 1 µM.
In turn, `FC(F)(F)c1ccc(Nc2nc(N/N=C/c3c[nH]c4ccccc34)nc(N3CCOCC3)n2)cc1` [Example 20, (E)-4-(2-((1h-indol-3-yl)methylene)hydrazinyl)-6-morpholino-n-(4-(trifluoromethyl)phenyl)-1,3,5-triazin-2-amine] registered an EC50 of at most 1 µM.
As for `Brc1ccc(Nc2nc(N/N=C/c3c[nH]c4ccccc34)nc(N3CCOCC3)n2)cc1` [Example 21, (E)-4-(2-((1h-indol-3-yl)methylene)hydrazinyl)-n-(4-bromophenyl)-6-morpholino-1,3,5-triazin-2-amine], the figure is at most 1 µM; as for `N#Cc1ccc(Nc2nc(N/N=C/c3c[nH]c4ccccc34)nc(N3CCOCC3)n2)cc1` [Example 22, (E)-4-((4-(2-((1H-indol-3-yl)methylene)hydrazinyl)-6-morpholino-1,3,5-triazin-2-yl)amino)benzonitrile], at most 1 µM; as for `Cc1ccc(Nc2nc(N/N=C\c3cccnc3)nc(N3CCOCC3)n2)cc1` [Example 23, [4-Morpholin-4-yl-6-(N′-pyridin-3-ylmethylene-hydrazino)-[1,3,5]triazin-2-yl]-p-tolyl-amine], 1 to 10 µM.
As for `Cc1ccc(Nc2nc(N/N=C\c3cc[nH]c3)nc(N3CCOCC3)n2)cc1` [Example 24, {4-Morpholin-4-yl-6-[N′-(1H-pyrrol-3-ylmethylene)-hydrazino]-[1,3,5]triazin-2-yl}-p-tolyl-amine], the EC50 was in the range of 10 to 50 µM.
`Clc1cccc(Nc2nc(N/N=C/c3c[nH]c4ccccc34)nc(N3CCOCC3)n2)c1` [Example 25, (3-Chloro-phenyl)-{4-[N′-(1H-indol-3-ylmethylene)-hydrazino]-6-morpholin-4-yl-[1,3,5]triazin-2-yl}-amine] returned an EC50 of at most 1 µM.
For the molecule `O=[N+]([O-])c1ccc(Nc2nc(N/N=C/c3c[nH]c4ccccc34)nc(N3CCOCC3)n2)cc1` [Example 26, (E)-4-(2-((1H-indol-3-yl)methylene)hydrazinyl)-6-morpholino-N-(4-nitrophenyl)-1,3,5-triazin-2-amine], the EC50 was at most 1 µM.
For `Nc1ccc(Nc2nc(N/N=C/c3c[nH]c4ccccc34)nc(N3CCOCC3)n2)cc1` [Example 27, N1-(4-(2-((1h-indol-3-yl)methylene)hydrazinyl)-6-morpholino-1,3,5-triazin-2-yl)benzene-1,4-diamine], the concentration for a half-maximal effect (EC50) is at most 1 µM.
Molecule `CC(=O)Nc1ccc(Nc2nc(N/N=C/c3c[nH]c4ccccc34)nc(N3CCOCC3)n2)cc1` [Example 28, (E)-N-(4-((4-(2-((1H-indol-3-yl)methylene)hydrazinyl)-6-morpholino-1,3,5-triazin-2-yl)amino)phenyl)acetamide] yielded an EC50 of at most 1 µM.
The molecule `COCCN(CCOC)c1nc(N/N=C/c2c[nH]c3ccccc23)nc(Nc2ccc(C)cc2)n1` [Example 29, (E)-6-(2-((1H-Indol-3-yl)methylene)hydrazinyl)-N2,N2-bis(2-methoxyethyl)-N4-(p-tolyl)-1,3,5-triazine-2,4-diamine] had an EC50 of over 50 µM.
In turn, `Cc1ccc(Nc2nc(N/N=C/c3c[nH]c4ccccc34)nc(N(C)C)n2)cc1` [Example 30, (E)-6-(2-((1H-Indol-3-yl)methylene)hydrazinyl)-N2,N2-dimethyl-N4-(p-tolyl)-1,3,5-triazine-2,4-diamine] returned an EC50 of over 50 µM.
`Cc1ccc(Nc2nc(N/N=C\c3csc4ccccc34)nc(N3CCOCC3)n2)cc1` [Example 31, [4-(N′-Benzo[b]thiophen-3-ylmethylene-hydrazino)-6-morpholin-4-yl-[1,3,5]triazin-2-yl]-p-tolyl-amine] yielded an EC50 of 1 to 10 µM.
The result for `Cc1ccc(Nc2nc(N/N=C/c3ccncc3)nc(N3CCOCC3)n2)cc1` [Example 32, [4-Morpholin-4-yl-6-(N′-pyridin-4-ylmethylene-hydrazino)-[1,3,5]triazin-2-yl]-p-tolyl-amine] reads 1 to 10 µM; that for `Cc1ccc(Nc2nc(N/N=C/c3ccccc3)nc(N3CCOCC3)n2)cc1` [Example 33, [4-(N′-Benzylidene-hydrazino)-6-morpholin-4-yl-[1,3,5]triazin-2-yl]-p-tolyl-amine], at most 1 µM; that for `CN(C)c1ccc(Nc2nc(N/N=C/c3c[nH]c4ccccc34)nc(N3CCOCC3)n2)cc1` [Example 34, (E)-N1-(4-(2-((1H-indol-3-yl)methylene)hydrazinyl)-6-morpholino-1,3,5-triazin-2-yl)-N4,N4-dimethylbenzene-1,4-diamine], at most 1 µM.
As for `CCN(C)c1nc(N/N=C/c2c[nH]c3ccccc23)nc(Nc2ccc(C)cc2)n1` [Example 35, (E)-6-(2-((1H-Indol-3-yl)methylene)hydrazinyl)-N2-ethyl-N2-methyl-N4-(p-tolyl)-1,3,5-triazine-2,4-diamine], the figure is over 50 µM; as for `Cc1ccc(Nc2nc(N/N=C/c3c[nH]c4ccccc34)nc(N3CCC3)n2)cc1` [Example 36, (E)-4-(2-((1H-Indol-3-yl)methylene)hydrazinyl)-6-(azetidin-1-yl)-N-(p-tolyl)-1,3,5-triazin-2-amine], over 50 µM; as for `Cc1ccc(Nc2nc(N/N=C/c3c[nH]c4ccccc34)nc(N3CCC(O)CC3)n2)cc1` [Example 37, (E)-1-(4-(2-((1H-Indol-3-yl)methylene)hydrazinyl)-6-(p-tolylamino)-1,3,5-triazin-2-yl)piperidin-4-ol], over 50 µM.
The result for `Cc1ccc(Nc2nc(N/N=C/c3c[nH]c4ccccc34)nc(N3CCSCC3)n2)cc1` [Example 38, (E)-4-(2-((1H-Indol-3-yl)methylene)hydrazinyl)-6-thiomorpholino-N-(p-tolyl)-1,3,5-triazin-2-amine] reads over 50 µM; that for `Cc1ccc(Nc2cc(N/N=C/c3c[nH]c4ccccc34)nc(N3CCOCC3)n2)cc1` [Example 39], 1 to 10 µM; that for `Cc1ccc(Nc2cc(-n3ncc4c5ccccc5[nH]c43)nc(N3CCOCC3)n2)cc1` [Example 40, [2-morpholin-4-yl-6-(8H-pyrazolo[3,4-b]indol-1-yl)-pyrimidin-4-yl]-p-tolyl-amine], 10 to 50 µM.
In turn, `Cc1ccc(Nc2cc(N3CCOCC3)nc(N/N=C/c3c[nH]c4ccccc34)n2)cc1` [Example 41, {2-[N′-(1H-indol-3-ylmethylene)-hydrazino]-6-morpholin-4-yl-pyrimidin-4-yl}-p-tolyl-amine] displayed an EC50 of 1 to 10 µM.
As to `Clc1ccccc1Nc1nc(N/N=C/c2c[nH]c3ccccc23)nc(N2CCOCC2)n1` [Example 42, (2-Chloro-phenyl)-{4-[N′-(1H-indol-3-ylmethylene)-hydrazino]-6-morpholin-4-yl-[1,3,5]triazin-2-yl}-amine], the EC50 is at most 1 µM.
